Consider eight compounds from ChEMBL document CHEMBL3588759, “Structure-based design, synthesis and evaluation in vitro of arylnaphthyridinones, arylpyridopyrimidinones and their tetrahydro derivatives as inhibitors of the tankyrases” (Bioorg Med Chem, 2015).

The target of assay [1] is T1, Poly [ADP-ribose] polymerase tankyrase-1 (Homo sapiens, UniProt O95271).
T1 sequence (O95271 whole entry): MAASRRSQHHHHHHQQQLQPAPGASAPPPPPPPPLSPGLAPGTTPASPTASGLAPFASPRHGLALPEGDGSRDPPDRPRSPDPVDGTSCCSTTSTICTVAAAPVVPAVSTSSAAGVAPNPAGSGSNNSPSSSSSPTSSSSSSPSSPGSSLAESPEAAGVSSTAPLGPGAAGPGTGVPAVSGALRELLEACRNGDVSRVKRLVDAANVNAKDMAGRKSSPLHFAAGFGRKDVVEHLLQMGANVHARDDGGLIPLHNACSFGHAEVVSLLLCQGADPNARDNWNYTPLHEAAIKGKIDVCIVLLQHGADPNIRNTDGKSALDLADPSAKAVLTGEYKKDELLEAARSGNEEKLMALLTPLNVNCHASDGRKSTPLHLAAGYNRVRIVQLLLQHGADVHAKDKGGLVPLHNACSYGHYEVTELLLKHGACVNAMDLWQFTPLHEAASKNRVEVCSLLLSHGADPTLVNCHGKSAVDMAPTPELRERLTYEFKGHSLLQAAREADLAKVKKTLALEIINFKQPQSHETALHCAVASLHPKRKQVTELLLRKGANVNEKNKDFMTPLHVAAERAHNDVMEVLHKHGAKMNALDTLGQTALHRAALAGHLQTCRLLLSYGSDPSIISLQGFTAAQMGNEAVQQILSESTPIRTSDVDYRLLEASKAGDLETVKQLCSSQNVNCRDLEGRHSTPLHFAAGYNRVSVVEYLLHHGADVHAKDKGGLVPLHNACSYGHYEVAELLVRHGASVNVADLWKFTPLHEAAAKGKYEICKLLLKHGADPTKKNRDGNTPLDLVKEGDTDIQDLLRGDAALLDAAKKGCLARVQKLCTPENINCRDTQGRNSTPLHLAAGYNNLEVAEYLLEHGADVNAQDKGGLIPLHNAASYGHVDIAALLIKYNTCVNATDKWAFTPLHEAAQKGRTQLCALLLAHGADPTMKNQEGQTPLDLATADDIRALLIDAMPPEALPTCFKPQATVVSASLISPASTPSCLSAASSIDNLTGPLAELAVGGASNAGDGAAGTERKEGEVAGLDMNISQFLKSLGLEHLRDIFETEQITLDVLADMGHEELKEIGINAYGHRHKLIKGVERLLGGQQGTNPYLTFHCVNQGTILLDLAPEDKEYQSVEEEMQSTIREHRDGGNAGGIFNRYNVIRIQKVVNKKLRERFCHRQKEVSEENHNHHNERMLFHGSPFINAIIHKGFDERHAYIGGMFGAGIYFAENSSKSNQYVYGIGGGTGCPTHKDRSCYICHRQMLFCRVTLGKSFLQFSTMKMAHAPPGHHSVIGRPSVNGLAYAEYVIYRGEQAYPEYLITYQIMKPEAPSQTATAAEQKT
Briefly: Inhibition of human TNKS1 catalytic activity.

The subject of assay [2] is HT-29. Briefly: Antiproliferative activity against human HT-29 cells.
Assay [3] can be described thus: Antiproliferative activity against human FEK4 cells.
Assay [4] concerns the target T2, Poly [ADP-ribose] polymerase tankyrase-2 (Homo sapiens, UniProt Q9H2K2).
T2 sequence (Q9H2K2 whole entry): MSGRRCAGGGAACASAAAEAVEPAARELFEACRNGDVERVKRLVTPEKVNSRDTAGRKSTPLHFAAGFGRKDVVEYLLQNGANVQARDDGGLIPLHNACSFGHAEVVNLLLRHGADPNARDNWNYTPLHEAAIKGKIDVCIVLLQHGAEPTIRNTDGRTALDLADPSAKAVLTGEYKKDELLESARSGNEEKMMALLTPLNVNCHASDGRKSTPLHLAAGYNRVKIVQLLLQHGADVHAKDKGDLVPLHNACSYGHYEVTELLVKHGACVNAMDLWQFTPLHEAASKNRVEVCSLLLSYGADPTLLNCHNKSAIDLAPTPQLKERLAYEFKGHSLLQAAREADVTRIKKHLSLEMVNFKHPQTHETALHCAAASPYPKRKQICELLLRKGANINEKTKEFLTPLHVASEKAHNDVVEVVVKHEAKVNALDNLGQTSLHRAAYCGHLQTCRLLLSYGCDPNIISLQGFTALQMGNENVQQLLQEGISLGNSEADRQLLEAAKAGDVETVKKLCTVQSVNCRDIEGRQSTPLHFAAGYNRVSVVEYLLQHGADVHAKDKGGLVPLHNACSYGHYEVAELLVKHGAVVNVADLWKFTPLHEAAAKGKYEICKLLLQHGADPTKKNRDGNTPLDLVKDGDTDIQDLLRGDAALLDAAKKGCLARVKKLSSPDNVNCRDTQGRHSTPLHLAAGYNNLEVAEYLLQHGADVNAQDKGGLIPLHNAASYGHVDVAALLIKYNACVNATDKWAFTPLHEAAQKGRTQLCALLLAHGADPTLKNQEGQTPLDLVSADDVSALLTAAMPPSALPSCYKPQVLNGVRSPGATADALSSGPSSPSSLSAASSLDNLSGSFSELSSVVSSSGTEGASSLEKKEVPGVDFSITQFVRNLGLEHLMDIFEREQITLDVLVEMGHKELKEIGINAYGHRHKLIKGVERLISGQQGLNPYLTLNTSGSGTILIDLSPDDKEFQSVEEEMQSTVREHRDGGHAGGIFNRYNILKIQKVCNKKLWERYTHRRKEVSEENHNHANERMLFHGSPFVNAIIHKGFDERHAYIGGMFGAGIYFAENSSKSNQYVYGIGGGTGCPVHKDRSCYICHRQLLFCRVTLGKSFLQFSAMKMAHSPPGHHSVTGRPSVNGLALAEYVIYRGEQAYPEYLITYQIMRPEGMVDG
Briefly: Inhibition of human TNKS2 catalytic activity.

For assay [5], the target named is Poly [ADP-ribose] polymerase 1 (Homo sapiens, UniProt P09874). The assay is described as follows: Inhibition of human PARP1.
Chain of Poly [ADP-ribose] polymerase 1 (P09874 whole entry): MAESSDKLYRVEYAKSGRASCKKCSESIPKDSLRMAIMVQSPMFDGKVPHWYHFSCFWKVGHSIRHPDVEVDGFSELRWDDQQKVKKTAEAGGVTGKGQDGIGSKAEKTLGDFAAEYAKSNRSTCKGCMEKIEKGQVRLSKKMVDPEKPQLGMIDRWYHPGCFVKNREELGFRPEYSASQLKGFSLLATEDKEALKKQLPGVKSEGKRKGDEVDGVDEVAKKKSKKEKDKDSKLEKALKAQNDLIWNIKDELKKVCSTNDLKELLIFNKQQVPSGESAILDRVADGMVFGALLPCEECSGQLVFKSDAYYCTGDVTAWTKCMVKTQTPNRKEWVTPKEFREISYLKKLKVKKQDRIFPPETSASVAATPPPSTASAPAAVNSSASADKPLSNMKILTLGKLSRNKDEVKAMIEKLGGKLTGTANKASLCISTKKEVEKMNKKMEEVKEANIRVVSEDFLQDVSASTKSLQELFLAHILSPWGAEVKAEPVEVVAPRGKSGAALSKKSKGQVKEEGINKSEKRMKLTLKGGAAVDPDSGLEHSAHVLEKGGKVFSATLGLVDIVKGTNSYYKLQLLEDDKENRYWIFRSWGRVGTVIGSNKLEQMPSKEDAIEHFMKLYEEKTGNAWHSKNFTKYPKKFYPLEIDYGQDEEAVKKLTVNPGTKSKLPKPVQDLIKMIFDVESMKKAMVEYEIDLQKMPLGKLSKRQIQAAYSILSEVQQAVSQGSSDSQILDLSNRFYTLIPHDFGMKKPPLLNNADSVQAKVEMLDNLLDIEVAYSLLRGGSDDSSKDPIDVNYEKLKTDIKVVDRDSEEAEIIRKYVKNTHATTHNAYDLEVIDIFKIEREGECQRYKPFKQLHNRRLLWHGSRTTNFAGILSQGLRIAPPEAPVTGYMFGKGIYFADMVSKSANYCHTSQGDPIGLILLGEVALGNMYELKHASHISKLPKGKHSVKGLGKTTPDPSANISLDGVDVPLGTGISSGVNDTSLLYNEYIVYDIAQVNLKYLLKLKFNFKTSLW

Usually IC50 stands for the concentration that gives 50% inhibition.

Take `CN1CCCc2c1cc(-c1ccccc1)[nH]c2=O`: the IC50 is 0.097 µM in assay [1], greater than 500 µM in assay [2] and greater than 500 µM in assay [3].

Regarding `Cc1ccc(-c2cc3cnccc3c(=O)[nH]2)cc1`, the IC50 in assay [1] is 6.2 µM; in assay [2], 157 µM; in assay [3], greater than 500 µM.

With `CN1CCCc2c1cc(-c1ccc(C(F)(F)F)cc1)[nH]c2=O`, the values for the IC50 in assay [1], in assay [2] and in assay [3] were 0.0015 µM, greater than 200 µM and greater than 200 µM, respectively.

On to `CN1CCCc2c1cc(-c1ccc(Br)cc1)[nH]c2=O`, for which the IC50 in assay [4] is 0.423 µM; in assay [1], 0.0061 µM; in assay [5], 2 µM; in assay [2], 26 µM; in assay [3], greater than 500 µM.

In the case of `COc1ccc(-c2cc3c(c(=O)[nH]2)CCCN3C)cc1`, the figures for the IC50 in assay [1], in assay [2] and in assay [3] were 0.0011 µM, greater than 200 µM and greater than 200 µM, respectively.

Turning to `CN1CCCc2c1cc(-c1ccc(Cl)cc1)[nH]c2=O`, the IC50 was 0.021 µM in assay [1], 26 µM in assay [2] and greater than 500 µM in assay [3].

As for `O=c1[nH]c(-c2ccccc2)cc2ccncc12`, the values for the IC50 in assay [1], in assay [2] and in assay [3] were 1.3 µM, greater than 500 µM and greater than 500 µM, respectively.

Consider `O=c1[nH]c(-c2ccccc2)cc2ncccc12`, for which the IC50 in assay [1] was 5 µM; in assay [2], greater than 500 µM; in assay [3], greater than 500 µM.
